Here are results for 4 compounds from patent publication US8513226B2, “Simultaneous method for the preparation of a mixture of 3-acetoxy-17-acetamido-16-formyl-androst-5,17-diene and 3-acetoxy-2'-chloro-5-androsteno[17,16-b]pyridine” (Council of Scientific and Industrial Research, priority 2008, dated 2013).

Each structure is given as a SMILES string. “Also recorded” adds a separate entry of the source. Like-named read-outs stand apart in the source and are kept apart here.

Data set [1] concerns cold restraint stress ulcer in rats. Briefly: Cold restraint stress induced ulceration. The format is in vivo, rat. To be noted: for protection of ulceration induced by cold restraint stress: 50 mg/kg body weight. As to the method:
Adult rats of either sex, weighing about 200 g were fasted for 24 h with free access to water. Compound 4 (in 0.4% hydroxypropylmethylcellulose, HPMC) were administered 45 min before immobilizing the animals. The rats were immobilized in the restraint cage at 4 °C for 4 h and were sacrificed immediately after the restraint period according to the method of Senay and Levine (E C Senay & R J Levine, Proc. Soc. Exp. Biol. Med. 1967, 124, 1221). The abdomen was cut opened, stomach taken out and incised along the greater curvature to observe the gastric lesions. The ulceration was rated and the ulcer index (UI) scored as described in Wagner et al. (K Wagner, J Nandi, R L King & R A Levine, Dig. Dis. Sci. 1995, 40, 134), the effect of compound 4 being expressed graphically as a function of ulcer index and the result was further expressed as the percent protection of the ulcer formation in comparison to the untreated control group (FIG. 4).

For data set [2], the system named is rabbit gastric parietal cells. Briefly: Basal acid secretion (aminopyrine uptake) in gastric parietal cells. The class given is cell-based. Conditions: Oryctolagus cuniculus.
Protocol: (§1) Briefly, the technique involves high-pressure perfusion of the stomach in live animal with oxygenated PBS, stripping and mincing the mucosa followed by 2-step proteolytic digestion at 37° C., first with a mixture of protease (0.1 mg/ml) and pronase (1 mg/ml) for 15 min and then the pellet obtained therefrom with collagenase (1 mg/ml) for 30 min. The washed cell pellet containing majority of the gastric cells was layered on top of a two-step gradient of Nycodenz (density 1.05 and 1.075 g/ml) and centrifuged at 150×g for 10 min. Parietal cells enriching in between density of 1.05 and 1.075 interface were collected, washed 3 times with respiratory medium and used for the study. The PC preparations were nearly 90% pure and viable.
(§2) The [^14C]-aminopyrine (115 μCi/mM) was added to the suspension at a concentration of 0.1 mCi/ml, and incubation was continued for another 10 min. One-milliliter aliquots of such PC suspension (˜5×10^6 cells) were further incubated in the presence and the absence of histamine (0.1 mM) for 20 min at 37° C. with slow shaking and oxygen top gassing. At the end of the incubation, the PC suspensions were centrifuged, supernatant carefully aspired off and the pellets solubilized in scintillation fluid containing Triton X-100. The resulting solution was counted in a liquid scintillation counter. The aminopyrine accumulation was determined as the ratio of intra- to extracellular aminopyrine according to Mazzeo et al. (A R Mazzeo, J Nandi & R A Levine, Am. J. Physiol. 1988, 254, G57).
The test system of data set [3] is pylorus-ligated rats. Briefly: Gastric secretion in pylorus-ligated rats. The format is in vivo, rat. The method, then:
The pylorus of each rat was ligated under anesthesia according to the method of Shay et. al. (H Shay, S A Komarov, S S Fels, D Merange, M Grunstein & H Siplet, Gastroenterol. 1945, 4, 43). Each of the animals were then allowed to stand abstained from food and water in a cage. After 4 h, the animals were sacrificed and the stomachs were removed. The gastric contents were collected and centrifuged, and the secretory volume, pH and acid content of the supernatants were measured. The acid content was measured by titrating to pH 7.0 with 0.01 N NaOH using an autotitrator (Metrohm). The total acid content of the drug treated groups was compared to that of control groups, presented graphically in FIG. 5 and thereby, the reduction percentage of acid content was calculated. Compound 4 was suspended in 0.4% HPMC and administered orally at graded dose (10, 20, 50 and 100 mg/kg dose) in different groups 45 min before the ligation. In the control group, the vehicle (0.4% HPMC) was administered.

Data set [4] relates to Swiss albino mice. Briefly: Single-dose acute toxicity evaluation. The format is in vivo. To be noted: 1 g/kg body weight orally, 15 days observation. An excerpt:
The Compound 4 was checked for mortality of the Swiss albino mice. Five animals of Swiss albino mice strain were used for this purpose. The dosage up to 1 g/kg body weight was given orally per mice and the animals kept up to 15 days under observation. It was observed that the mice were not affected at the dose level of 1 g/kg body weight of Compound 4.

In data set [5] the test system is indomethacin-induced ulcer in rat. Briefly: Indomethacin-induced ulcer in rat. The class given is in vivo. Conditions: for protection of indomethacin induced ulcer formation: p.o. 45 min before indomethacin 15 mg/kg p.o.
Protocol: The animals were kept fasting for 24 h before initiating the experiment, drinking water being available ad libitum. The animals were allotted to three groups, each group comprising of six rats. […] Six hours following the administration of indomethacin, the animals were killed, stomachs removed and opened along the greater curvature.
In data set [6] the test system is rabbit gastric parietal cells. As to the kind of experiment: Histamine-stimulated acid secretion (aminopyrine uptake) in gastric parietal cells. The format is cell-based. To be noted: histamine 0.1 mM.
Protocol: as §1, §2
Data set [7] concerns the target H^+,K^+-ATPase (Sus scrofa, UniProt P19156). Briefly: H+,K+-ATPase (gastric proton pump) inhibition in pig gastric membranes. Conditions: for IC50: read-out: calculated IC50, H^+,K^+-ATPase. The format is biochemical. The method, then:
Pig gastric membranes enriched in apical and tubulovesicular membranes were prepared as described in the literature (S Bandopadhyay, P K Das, M V Wright, J Nandi, D Bhattacharya & T K Ray, J. Biol. Chem. 1987, 262, 5664). The fundic mucosal regions of pig stomach were desquamated and scrapped to collect oxyntic cell-riched fractions. The homogenized tissue was centrifuged at 5000×g for 8 min, the supernatant was layered over 37% sucrose and centrifuged at 100,000×g for 4½ h. The major membrane band appeared in the interface was collected, diluted with homogenizing buffer and recentrifuged at 110,000×g for 90 min. The pellet containing H^+,K^+-ATPase rich apical and tubulovesicular membranes was suspended in appropriate buffer and stored at −80° C. for use as the source of enzyme.
The H^+,K^+-ATPase activity was measured at 37° C. in a 1 ml reaction mixture containing 2 mM MgCl2, 2 mM ATP, 10 mM PIPES (pH 6.8), 20 mM KCl and 10-15 μg membrane protein. […] After incubation for 10 min, the reaction was terminated by addition of 1 ml ice-chilled TCA (14%).
K^+-stimulated activity, referred to as H^+,K^+-ATPase, was calculated as the difference between the activity in presence of Mg^+2 plus K^+ and basal activity (Mg^+-ATPase) in presence of Mg^+2 alone. […] The liberated inorganic phosphate was quantitated according to a reported procedure (H Sanui, Anal. Biochem. 1974, 60, 489) and the effects of 4 and 5 were assessed. The effects are quantitated in terms of percent inhibition of H^+,K^+-ATPase activity, and compared with that of omeprazole.

Sequence of H^+,K^+-ATPase (P19156 whole entry): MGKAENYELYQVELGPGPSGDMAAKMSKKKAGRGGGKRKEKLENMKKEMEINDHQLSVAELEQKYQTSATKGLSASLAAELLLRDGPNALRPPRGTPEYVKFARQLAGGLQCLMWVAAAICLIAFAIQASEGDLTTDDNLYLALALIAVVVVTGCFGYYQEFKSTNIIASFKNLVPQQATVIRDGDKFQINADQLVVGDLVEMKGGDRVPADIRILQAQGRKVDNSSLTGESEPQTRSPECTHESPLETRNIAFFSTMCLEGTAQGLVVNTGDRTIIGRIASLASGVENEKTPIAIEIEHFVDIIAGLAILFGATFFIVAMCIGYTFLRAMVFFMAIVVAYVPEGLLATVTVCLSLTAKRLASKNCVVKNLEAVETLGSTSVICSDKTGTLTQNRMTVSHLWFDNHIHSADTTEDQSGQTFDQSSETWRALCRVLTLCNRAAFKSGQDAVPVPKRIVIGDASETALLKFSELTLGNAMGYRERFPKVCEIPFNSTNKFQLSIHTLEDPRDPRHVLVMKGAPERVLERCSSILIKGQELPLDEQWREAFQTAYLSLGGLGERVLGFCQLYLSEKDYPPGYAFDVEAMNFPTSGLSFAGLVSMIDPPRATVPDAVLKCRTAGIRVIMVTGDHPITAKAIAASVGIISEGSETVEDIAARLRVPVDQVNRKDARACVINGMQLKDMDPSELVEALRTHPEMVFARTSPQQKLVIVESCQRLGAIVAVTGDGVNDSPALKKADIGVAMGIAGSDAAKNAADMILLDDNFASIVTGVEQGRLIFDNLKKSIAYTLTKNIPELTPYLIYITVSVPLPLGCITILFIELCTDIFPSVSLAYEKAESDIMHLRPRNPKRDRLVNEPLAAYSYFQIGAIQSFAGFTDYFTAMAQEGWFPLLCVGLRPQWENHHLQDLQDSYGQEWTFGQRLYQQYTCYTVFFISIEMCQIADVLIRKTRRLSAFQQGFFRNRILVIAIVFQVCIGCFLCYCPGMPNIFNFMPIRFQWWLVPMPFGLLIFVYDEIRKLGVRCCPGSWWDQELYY
Sequence of H^+,K^+-ATPase (P18434 whole entry partner): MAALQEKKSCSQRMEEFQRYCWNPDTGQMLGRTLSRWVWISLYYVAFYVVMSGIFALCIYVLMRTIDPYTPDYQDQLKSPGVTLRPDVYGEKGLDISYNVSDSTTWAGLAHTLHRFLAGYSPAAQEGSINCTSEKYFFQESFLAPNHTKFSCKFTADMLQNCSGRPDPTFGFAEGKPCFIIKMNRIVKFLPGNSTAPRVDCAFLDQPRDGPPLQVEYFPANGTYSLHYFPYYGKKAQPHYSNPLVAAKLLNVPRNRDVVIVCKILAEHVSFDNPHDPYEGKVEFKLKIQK

For `CN/C(=N/CCSCc1nc[nH]c1C)NC#N` [Cimetidine, reference compound], the “protection of ulceration induced by cold restraint stress” value in data set [1] was determined as 86%. This compound also displayed an inhibition at 200 µM in data set [2] (200 μM) of about 10%. Further, the “inhibition of acid output” value in data set [3] (50 mg/kg) is given as about 80%.

For `CC(=O)NC1=C(C=O)CC2C3CC=C4CC(OC(C)=O)CCC4(C)C3CCC12C` (stereo not shown) [Compound 4, 3-acetoxy-17-acetamido-16-formyl-androst-5,17-diene], the “mortality and behavioral abnormality, single-dose acute toxicity” value in data set [4] was “No mortality and behavioral abnormality; also recorded: did not show acute toxicity”. Further, in data set [1], the “protection of ulceration induced by cold restraint stress” value is 54%. Besides, the “antiulcer activity in cold restraint stress ulcer model (in words)” value in data set [1] (50 mg/kg body wt.) is “potent antiulcer activity”. In addition, the “anti ulcer activity in indomethacin-induced ulcer model (in words)” value in data set [5] (10-50 mg/kg b.w.) is listed as “potent anti ulcer activity”. In data set [5], the “protection of indomethacin induced ulcer formation” value was about 75%. Moreover, the inhibition at 300 µM in data set [2] (300 μM (highest concentration)) is about 10%. The IC50 in data set [6] (Oryctolagus cuniculus, read-out: IC50, inhibition of histamine-stimulated acid secretion) was about 130 µM; in data set [7] it was 18 µM. Moreover, the “activity compared with cimetidine in inhibiting histamine-stimulated secretion” value in data set [6] is reported as “IC50 value comparable to cimetidine; also recorded: almost equiactive as compared with cimetidine”. In addition, the “inhibition of H^+,K^+-ATPase (in words)” value in data set [7] is given as “dose dependent”. In addition, in data set [7], the “nature of inhibition of H^+,K^+-ATPase” value is “irreversible”. Besides, the “Observation (nature of inhibition)” value in data set [7] (10 μM, different protein to inhibitor ratio) is “Irreversible”; in data set [7] (10 μM, function of preincubation time), “Irreversible”. The inhibition at 10 µM amounted to 2% in data set [7] (10 μM, preincubation time 0 min, read-out: % Inhibition of H^+, K^+-ATPase); 56% in data set [7] (10 μM, preincubation time 30 min, read-out: % Inhibition of H^+, K^+-ATPase); 75% in data set [7] (10 μM, protein concentration 5 μg/assay, read-out: % Inhibition of H^+, K^+-ATPase); 57% in data set [7] (10 μM, protein concentration 20 μg/assay, read-out: % Inhibition of H^+, K^+-ATPase); 47% in data set [7] (concentration 10 μM, read-out: % Inhibition H^+, K^+-ATPase). Testing at 1 µM in data set [7] (concentration 1 μM) gave an inhibition of 7%. In addition, the inhibition at 5 µM in data set [7] (concentration 5 μM) stood at 20%. In data set [7] (concentration 100 μM), this compound displayed an inhibition at 100 µM of 75%. The “inhibition of acid output” value in data set [3] (50 mg/kg) is recorded as about 33%; in data set [3] (50-100 mg/kg, oral) it was about 30%.

Regarding `CC(=O)O[C@H]1CC[C@@]2(C)C(=CC[C@@H]3[C@@H]2CC[C@]2(C)c4nc(Cl)ccc4C[C@@H]32)C1` [Compound 5, 3-acetoxy-2′-chloro-5-androsteno[17,16-b]pyridine], in data set [7], the “inhibition of H^+,K^+-ATPase (in words)” value is reported as “nominal”. The “% Inhibition H^+, K^+-ATPase” value is listed as 2% in data set [7] (concentration 1 μM), 37% in data set [7] (concentration 10 μM) and 57% in data set [7] (concentration 100 μM).

In the case of `COc1ccc2[nH]c([S+]([O-])Cc3ncc(C)c(OC)c3C)nc2c1` (stereo not shown) [Omeprazole, 5-methoxy-2-[(4-methoxy-3,5-dimethyl-2-pyridinyl)-methyl]sulfinyl-1H-benzimidazole, reference compound], in data set [5], the “protection of indomethacin induced ulcer formation” value is on record as about 90%. In addition, the inhibition at 20 µM in data set [2] (20 μM) lay within 80 to 90%. Besides, the inhibition at 3 µM in data set [7] (concentration 3 μM) came out at 20%. In addition, in data set [7] (concentration 30 μM), the inhibition at 30 µM stood at 80%. Further, in data set [7] (concentration range 3 μM and 30 μM), the “inhibition of H^+,K^+-ATPase” value is on record as 20-80%. For the same compound, the “potency relative to 4 (H^+,K^+-ATPase)” value in data set [7] (from IC50 values) is recorded as “about three times more potent than 4”. Also, the IC50 in data set [7] was about 6 µM.

Broadly, the inhibition is the percentage by which the read-out fell short of the control. Broadly, the IC50 is the concentration that gives 50% inhibition.
